Assay results: PubChem BioAssay (NCI)
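Interpolation was linear, between the two tested concentrations surrounding the appropriate level; five concentrations were tested over 48 hours in 96-well plates. TGI: concentration producing complete growth inhibition.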

Legend:
Assay in all cases: NCI anticancer screen, dose series, 48 h
786-0 renal = system: 786-0 renal
A549 NSCLC = system: A549 NSCLC
ACHN renal = system: ACHN renal
CCRF-CEM leukemia = system: CCRF-CEM leukemia
COLO 205 colon = system: COLO 205 colon
DLD-1 colon = system: DLD-1 colon
DMS 114 small cell lung = system: DMS 114 small cell lung
DMS 273 small cell lung = system: DMS 273 small cell lung
EKVX NSCLC = system: EKVX NSCLC
HCC-2998 colon = system: HCC-2998 colon
HCT-116 colon = system: HCT-116 colon
HCT-15 colon = system: HCT-15 colon
HL-60(TB) leukemia = system: HL-60(TB) leukemia
HOP-18 NSCLC = system: HOP-18 NSCLC
HOP-62 NSCLC = system: HOP-62 NSCLC
HOP-92 NSCLC = system: HOP-92 NSCLC
IGROV1 ovarian = system: IGROV1 ovarian
K-562 leukemia = system: K-562 leukemia
KM12 colon = system: KM12 colon
KM20L2 colon = system: KM20L2 colon
LOX IMVI melanoma = system: LOX IMVI melanoma
LXFL 529 NSCLC = system: LXFL 529 NSCLC
M14 melanoma = system: M14 melanoma
M19-MEL melanoma = system: M19-MEL melanoma
MALME-3M melanoma = system: MALME-3M melanoma
MOLT-4 leukemia = system: MOLT-4 leukemia
NCI-H23 lung = system: NCI-H23 lung
NCI-H460 lung = system: NCI-H460 lung
OVCAR-3 ovarian = system: OVCAR-3 ovarian
OVCAR-4 ovarian = system: OVCAR-4 ovarian
OVCAR-5 ovarian = system: OVCAR-5 ovarian
OVCAR-8 ovarian = system: OVCAR-8 ovarian
RPMI-8226 leukemia = system: RPMI-8226 leukemia
RXF 393 renal = system: RXF 393 renal
RXF-631 renal = system: RXF-631 renal
SF-268 CNS = system: SF-268 CNS
SF-295 CNS = system: SF-295 CNS
SF-539 CNS = system: SF-539 CNS
SK-MEL-2 melanoma = system: SK-MEL-2 melanoma
SK-MEL-5 melanoma = system: SK-MEL-5 melanoma
SK-OV-3 ovarian = system: SK-OV-3 ovarian
SN12C renal = system: SN12C renal
SNB-19 CNS = system: SNB-19 CNS
SNB-75 CNS = system: SNB-75 CNS
SNB-78 CNS = system: SNB-78 CNS
SW-620 colon = system: SW-620 colon
TK-10 renal = system: TK-10 renal
U251 CNS = system: U251 CNS
UACC-62 melanoma = system: UACC-62 melanoma
UO-31 renal = system: UO-31 renal
XF 498 CNS = system: XF 498 CNS
CAKI-1 renal = system: CAKI-1 renal
HT29 colon = system: HT29 colon
NCI-H226 lung = system: NCI-H226 lung
NCI-H522 lung = system: NCI-H522 lung
SK-MEL-28 melanoma = system: SK-MEL-28 melanoma
SR leukemia = system: SR leukemia
UACC-257 melanoma = system: UACC-257 melanoma
A498 renal = system: A498 renal

In the case of `CCOC(=O)C(C)c1cc(C2(C)OCCO2)c(C)o1` (centres undefined), the TGI (786-0 renal) is reported as > 100 µM, the TGI (A549 NSCLC) is reported as > 100 µM and the TGI (ACHN renal) is reported as > 100 µM. The TGI (CCRF-CEM leukemia) was > 100 µM, the TGI (COLO 205 colon) was > 100 µM and the TGI (DLD-1 colon) was > 100 µM. For the same compound, the TGI (DMS 114 small cell lung) was > 100 µM, the TGI (DMS 273 small cell lung) was > 100 µM and the TGI (EKVX NSCLC) was > 100 µM. For the same compound, the TGI (HCC-2998 colon) was > 100 µM, the TGI (HCT-116 colon) was > 100 µM and the TGI (HCT-15 colon) was > 100 µM. For the same compound, the TGI (HL-60(TB) leukemia) was > 100 µM, the TGI (HOP-18 NSCLC) was > 100 µM and the TGI (HOP-62 NSCLC) was > 100 µM. The TGI (HOP-92 NSCLC) was 97.7 µM, the TGI (IGROV1 ovarian) was > 100 µM and the TGI (K-562 leukemia) was > 100 µM. The TGI (KM12 colon) was > 100 µM, the TGI (KM20L2 colon) was > 100 µM and the TGI (LOX IMVI melanoma) was > 100 µM. For the same compound, the TGI (LXFL 529 NSCLC) was > 100 µM, the TGI (M14 melanoma) was > 100 µM and the TGI (M19-MEL melanoma) was > 100 µM. The TGI (MALME-3M melanoma) was > 100 µM, the TGI (MOLT-4 leukemia) was > 100 µM and the TGI (NCI-H23 lung) was > 100 µM. The TGI (NCI-H460 lung) was > 100 µM, the TGI (OVCAR-3 ovarian) was > 100 µM and the TGI (OVCAR-4 ovarian) was > 100 µM. For the same compound, the TGI (OVCAR-5 ovarian) was > 100 µM, the TGI (OVCAR-8 ovarian) was > 100 µM and the TGI (RPMI-8226 leukemia) was > 100 µM. For the same compound, the TGI (RXF 393 renal) was > 100 µM, the TGI (RXF-631 renal) was > 100 µM and the TGI (SF-268 CNS) was > 100 µM. For the same compound, the TGI (SF-295 CNS) was > 100 µM, the TGI (SF-539 CNS) was > 100 µM and the TGI (SK-MEL-2 melanoma) was > 100 µM. The TGI (SK-MEL-5 melanoma) was > 100 µM, the TGI (SK-OV-3 ovarian) was > 100 µM and the TGI (SN12C renal) was > 100 µM. For the same compound, the TGI (SNB-19 CNS) was > 100 µM, the TGI (SNB-75 CNS) was > 100 µM and the TGI (SNB-78 CNS) was > 100 µM. The TGI (SW-620 colon) was > 100 µM, the TGI (TK-10 renal) was > 100 µM and the TGI (U251 CNS) was > 100 µM. The TGI (UACC-62 melanoma) was > 100 µM, the TGI (UO-31 renal) was > 100 µM and the TGI (XF 498 CNS) was > 100 µM.
In the case of `CCOC(=O)C1C(=O)c2ccccc2CN1Cc1ccccc1` (centres undefined), the TGI (786-0 renal) is reported as > 100 µM, the TGI (A549 NSCLC) is reported as > 100 µM and the TGI (ACHN renal) is reported as > 100 µM. For the same compound, the TGI (CAKI-1 renal) was > 100 µM, the TGI (CCRF-CEM leukemia) was > 100 µM and the TGI (COLO 205 colon) was > 100 µM. For the same compound, the TGI (DLD-1 colon) was > 100 µM, the TGI (DMS 114 small cell lung) was > 100 µM and the TGI (DMS 273 small cell lung) was > 100 µM. For the same compound, the TGI (EKVX NSCLC) was > 100 µM, the TGI (HCC-2998 colon) was > 100 µM and the TGI (HCT-116 colon) was > 100 µM. The TGI (HCT-15 colon) was > 100 µM, the TGI (HL-60(TB) leukemia) was > 100 µM and the TGI (HOP-18 NSCLC) was > 100 µM. For the same compound, the TGI (HOP-62 NSCLC) was > 100 µM, the TGI (HOP-92 NSCLC) was > 100 µM and the TGI (HT29 colon) was > 100 µM. The TGI (IGROV1 ovarian) was > 100 µM, the TGI (K-562 leukemia) was > 100 µM and the TGI (KM12 colon) was > 100 µM. The TGI (KM20L2 colon) was > 100 µM, the TGI (LOX IMVI melanoma) was > 100 µM and the TGI (LXFL 529 NSCLC) was > 100 µM. The TGI (M14 melanoma) was > 100 µM, the TGI (M19-MEL melanoma) was > 100 µM and the TGI (MALME-3M melanoma) was > 100 µM. The TGI (MOLT-4 leukemia) was > 100 µM, the TGI (NCI-H226 lung) was > 100 µM and the TGI (NCI-H23 lung) was > 100 µM. The TGI (NCI-H460 lung) was > 100 µM, the TGI (NCI-H522 lung) was > 100 µM and the TGI (OVCAR-3 ovarian) was > 100 µM. The TGI (OVCAR-4 ovarian) was > 100 µM, the TGI (OVCAR-5 ovarian) was > 100 µM and the TGI (OVCAR-8 ovarian) was > 100 µM. For the same compound, the TGI (RPMI-8226 leukemia) was > 100 µM, the TGI (RXF-631 renal) was > 100 µM and the TGI (SF-268 CNS) was > 100 µM. For the same compound, the TGI (SF-295 CNS) was > 100 µM, the TGI (SF-539 CNS) was > 100 µM and the TGI (SK-MEL-2 melanoma) was > 100 µM. For the same compound, the TGI (SK-MEL-28 melanoma) was > 100 µM, the TGI (SK-MEL-5 melanoma) was > 100 µM and the TGI (SK-OV-3 ovarian) was > 100 µM. The TGI (SN12C renal) was > 100 µM, the TGI (SNB-19 CNS) was > 100 µM and the TGI (SNB-75 CNS) was > 100 µM. The TGI (SNB-78 CNS) was > 100 µM, the TGI (SR leukemia) was > 100 µM and the TGI (SW-620 colon) was > 100 µM. The TGI (TK-10 renal) was > 100 µM, the TGI (U251 CNS) was > 100 µM and the TGI (UACC-257 melanoma) was > 100 µM. For the same compound, the TGI (UACC-62 melanoma) was > 100 µM, the TGI (UO-31 renal) was > 100 µM and the TGI (XF 498 CNS) was > 100 µM.
`CCOC(=O)CC1=CSC2=NCCN12` was tested, and the TGI (786-0 renal) was > 100 µM, the TGI (A498 renal) was > 100 µM and the TGI (A549 NSCLC) was > 100 µM. The TGI (ACHN renal) was > 100 µM, the TGI (CAKI-1 renal) was > 100 µM and the TGI (CCRF-CEM leukemia) was > 100 µM. The TGI (COLO 205 colon) was > 100 µM, the TGI (DLD-1 colon) was > 100 µM and the TGI (DMS 114 small cell lung) was > 100 µM. The TGI (DMS 273 small cell lung) was > 100 µM, the TGI (EKVX NSCLC) was > 100 µM and the TGI (HCC-2998 colon) was > 100 µM. The TGI (HCT-116 colon) was > 100 µM, the TGI (HCT-15 colon) was > 100 µM and the TGI (HL-60(TB) leukemia) was > 100 µM. For the same compound, the TGI (HOP-18 NSCLC) was > 100 µM, the TGI (HOP-62 NSCLC) was > 100 µM and the TGI (HOP-92 NSCLC) was > 100 µM. For the same compound, the TGI (HT29 colon) was > 100 µM, the TGI (IGROV1 ovarian) was > 100 µM and the TGI (K-562 leukemia) was > 100 µM. For the same compound, the TGI (KM12 colon) was > 100 µM, the TGI (KM20L2 colon) was > 100 µM and the TGI (LOX IMVI melanoma) was > 100 µM. The TGI (LXFL 529 NSCLC) was > 100 µM, the TGI (M14 melanoma) was > 100 µM and the TGI (M19-MEL melanoma) was > 100 µM. For the same compound, the TGI (MALME-3M melanoma) was > 100 µM, the TGI (NCI-H226 lung) was > 100 µM and the TGI (NCI-H23 lung) was > 100 µM. The TGI (NCI-H460 lung) was > 100 µM, the TGI (NCI-H522 lung) was > 100 µM and the TGI (OVCAR-3 ovarian) was > 100 µM. For the same compound, the TGI (OVCAR-4 ovarian) was > 100 µM, the TGI (OVCAR-5 ovarian) was > 100 µM and the TGI (OVCAR-8 ovarian) was > 100 µM. For the same compound, the TGI (RXF 393 renal) was > 100 µM, the TGI (RXF-631 renal) was > 100 µM and the TGI (SF-268 CNS) was > 100 µM. For the same compound, the TGI (SF-295 CNS) was > 100 µM, the TGI (SF-539 CNS) was > 100 µM and the TGI (SK-MEL-2 melanoma) was > 100 µM. For the same compound, the TGI (SK-MEL-28 melanoma) was > 100 µM, the TGI (SK-MEL-5 melanoma) was > 100 µM and the TGI (SK-OV-3 ovarian) was > 100 µM. For the same compound, the TGI (SN12C renal) was > 100 µM, the TGI (SNB-19 CNS) was > 100 µM and the TGI (SNB-75 CNS) was > 100 µM. For the same compound, the TGI (SNB-78 CNS) was > 100 µM, the TGI (SW-620 colon) was > 100 µM and the TGI (TK-10 renal) was > 100 µM. The TGI (U251 CNS) was > 100 µM, the TGI (UACC-257 melanoma) was > 100 µM and the TGI (UACC-62 melanoma) was > 100 µM. The TGI (UO-31 renal) was > 100 µM and the TGI (XF 498 CNS) was > 100 µM.
